Test results from PubChem BioAssay (NCI).
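Grown in 96-well plates, cells were treated for 48 hours with each compound at five concentrations. Insufficient inhibition: endpoint recorded as highest concentration tested. Abbreviation: GI50, concentration required for 50% inhibition of growth. Definition used: TGI = concentration required for complete inhibition of growth.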

Legend:
Test in all cases: NCI tumour cell line growth inhibition, 48 h
[1] = system: LOX IMVI melanoma
[2] = system: MDA-MB-231 breast
[3] = system: PC-3 prostate
[4] = system: T-47D breast
[5] = system: UACC-62 melanoma
[6] = system: DMS 114 small cell lung
[7] = system: DMS 273 small cell lung
[8] = system: KM20L2 colon
[9] = system: LXFL 529 NSCLC
[10] = system: SNB-78 CNS

Row | Compound | GI50 [1] [µM] | GI50 [2] [µM] | TGI [2] [µM] | GI50 [3] [µM] | TGI [3] [µM] | GI50 [4] [µM] | TGI [4] [µM] | GI50 [5] [µM] | TGI [5] [µM] | TGI [6] [µM] | TGI [7] [µM] | TGI [8] [µM] | TGI [1] [µM] | TGI [9] [µM] | TGI [10] [µM]
1 | O=c1cccc(C#CC#CC2=CCCCC2)o1 | 3.09 | 1.96 | 5.3 | 6.6 | 11.6 | 2.73 | 14.8 | 2.87 | 8.56 |  |  |  |  |  | 
2 | CCCCCCCCCCCC(=O)OCC1OC(OC)C(NC(=O)N(CCCl)N=O)C(O)C1O (configuration not stated) |  |  |  |  |  |  |  |  | 15.7 | 39 | 30.6 | 36.8 | 21.6 | 26.4 | 
3 | CC/C=C\C[C@H]1C/C=C2/C(=O)C=C[C@@H]2C/C=C\CCCC(=O)O1 | 0.273 | 2.76 | 13.2 | 1.31 | 3.73 | 1.21 | 9.33 | 0.573 | 2.37 |  |  |  | 0.865 |  | 
4 | C[C@]12CC[C@@H]3c4cc(OCC(F)(F)F)c(O)cc4/C(=N/O)C[C@H]3[C@@H]1CC[C@@H]2O | 0.048 |  | 1.5 |  | 12 |  |  | 0.0243 | 17.7 |  |  |  | 14.8 |  | 
5 | O=S(=O)(Nc1cc(Sc2cccc3cccnc23)c(O)c2ccccc12)c1ccccc1 | 0.522 | 0.47 | 6.01 | 0.467 | 13.1 | 1.56 | 4.79 | 1.49 | 4.33 |  |  |  | 10.1 |  | 
6 | COc1ccc2cc(C(C)C(=O)N3CCOC3=O)ccc2c1 (configuration not stated) |  |  | > 100 |  | > 100 |  | > 100 |  | > 100 |  |  |  | > 100 |  | 
7 | CC(=O)C(=CN1CCN(C(=O)c2ccco2)C1=S)C(C)=O | 2.12 | 2.62 | 6.96 | 4.83 | 46.6 | 3.65 | 12.6 | 5.52 | 19.1 |  |  |  | 4.62 |  | 
8 | O=C1NC(=O)C(CC2CCCCCCCCCCC2=O)C(=O)N1 (configuration not stated) |  |  | > 100 |  | > 100 |  |  |  | > 100 |  |  |  | > 100 |  | 
9 | CCCCON(OC(=O)c1ccc2ccc3cccc4ccc1c2c34)C(C)=O | 16.9 | 18.9 | 40.2 | 22.2 | 56.7 | 29.7 | > 100 | 21.5 | 47.2 |  |  |  | 33.1 |  | 
10 | Cc1ccc2[nH]c(O)c(N=Nc3ccc(S(N)(=O)=O)cc3)c2c1 | 13.1 | > 25 | > 25 | 11.9 | > 25 | 15.3 | > 25 | > 23.7 | > 25 |  |  |  | > 25 |  | 
11 | Cn1c2ccccc2c(=O)c2ccc(Cl)cc21 |  |  |  |  | > 10 |  | > 10 |  | > 10 |  |  |  | > 10 |  | 
12 | C=CC[C@]12C=C(OC)[C@@H](O)[C@](OC)(C(c3cc(OC)c4c(c3)OCO4)[C@H]1C)[C@H]2OC(C)=O (some centres not stated) |  |  | > 100 |  | > 100 |  | > 100 |  | > 100 |  |  |  |  |  | 
13 | CCSc1nc(SCC)c2cn[nH]c2n1 | 57.1 | 23.2 | > 100 | 39 | > 100 | 34.2 | > 100 | 25.6 | 92.7 |  |  |  | > 100 |  | 
14 | O=C(/C=C\c1ccc(NCc2ccc(C(=O)O)cc2)cc1)CCl | 2.17 | 12.7 | 27 | 14.2 | 28.9 | 2.6 | 12.5 |  |  |  |  |  | 5.12 |  | 
15 | COc1cc(C(=O)c2cc(C)c3[nH]c4ccc(C)cc4c3c2C)cc(OC)c1OC | < 0.01 | < 0.01 |  | < 0.01 | > 100 | 0.287 | > 100 | < 0.01 | > 100 |  |  |  | > 100 |  | 
16 | Nc1ccn(C2CCC(CO)O2)c(=O)n1 (configuration not stated) | > 1000 |  | > 1000 |  | > 1000 |  | > 1000 | > 1000 | > 1000 |  |  |  | > 1000 |  | > 81.9
17 | CC(C)C[C@H](NC(=O)/C=C/Cn1ccc2ccccc2c1=O)B(O)O | 2.88 | 2.85 | 8.14 | 17.4 | > 100 | 2.68 | 15.3 | 3.35 | 14.9 |  |  |  | 10.7 |  | 
18 | CCOC(=O)NC(=O)c1cn(CCCOC(=O)CCCCCCCCCCC(=O)OCCCn2cc(C(=O)NC(=O)OCC)c(=O)[nH]c2=O)c(=O)[nH]c1=O |  |  |  |  |  |  |  |  | > 100 |  |  | > 100 | > 100 | > 100 | > 100
19 | COc1c(CCl)cc(-c2cc(=O)c3ccccc3s2)cc1CCl |  |  |  |  | > 100 |  | 4.03 |  | > 100 |  |  |  |  |  | 
20 | CC1=CC(C/C(C)=C/COc2ccc3ccc(=O)oc3c2)OC1=O (configuration not stated) |  |  | > 100 |  | > 100 |  | > 100 |  | > 100 |  |  |  | > 100 |  | 
21 | COc1ccc(/C=C/c2cc(OC)cc(=O)o2)cc1 |  |  | > 100 |  | > 100 |  | > 100 |  | > 100 |  |  |  | > 100 |  | 
22 | COc1cc(NC(C)CCCN)c2nccc(C)c2c1 (configuration not stated) |  |  |  |  |  |  |  |  | 35.8 |  |  |  |  |  | 
23 | O=C1CSC(c2ccc(Cl)cc2Cl)N1c1ccc(F)cc1 (configuration not stated) | 18.2 | 16.1 | 30.4 | 18.5 | 35.5 |  |  | 16.2 | 30.5 |  |  |  | 34 |  | 
24 | COc1c(C(C)C)cc2c3c1OC(=O)[C@@]31CCCC(C)(C)C1CC2 (some centres not stated) |  |  |  |  |  |  |  |  | > 100 |  | > 100 | > 100 | > 100 | 49.8 | 67.1
25 | O=C(CCC1OCCO1)Nc1cc(NCc2ccccc2)ccc1OCc1ccccc1 |  |  | > 100 |  |  |  | > 100 |  | > 100 |  |  |  | > 100 |  | 
26 | CN(CCC#N)c1ccc(/C=C(\C#N)c2ccc(Br)cc2)cc1 |  | 4.72 | > 100 | > 100 | > 100 |  |  |  |  |  |  |  |  |  | 
27 | COc1ccc(CCN2COc3c([C@@H](C)CCC=C(C)C)ccc(C)c3C2)cc1OC | 1.77 | 2.76 | 9.37 | 1.95 | 5.83 | 1.78 | 3.8 | 3.48 | 14.6 |  |  |  | 3.75 |  | 
28 | COc1ccc(/C=C/C(=O)C(CC2CCC2)C(=O)/C=C/c2ccc(OC)c(OC)c2)cc1OC | 1.25 | 3.77 | > 100 | 2.85 | > 100 | 1.39 | 4.44 |  |  |  |  |  | 2.52 |  | 
